How the values were obtained:
human NPY Y5 receptor [1] = molecular target: T1, human NPY Y5 receptor (Homo sapiens, UniProt Q15761); assay: Affinity for NPY Y5 receptor ([125I] peptide YY binding, CHO cell membranes); settings: inhibition of specific [125I] peptide YY binding, membranes of CHO cells expressing NPY Y5 receptor
T1 construct: expressed in transfected cells
T1 sequence (Q15761 1-445): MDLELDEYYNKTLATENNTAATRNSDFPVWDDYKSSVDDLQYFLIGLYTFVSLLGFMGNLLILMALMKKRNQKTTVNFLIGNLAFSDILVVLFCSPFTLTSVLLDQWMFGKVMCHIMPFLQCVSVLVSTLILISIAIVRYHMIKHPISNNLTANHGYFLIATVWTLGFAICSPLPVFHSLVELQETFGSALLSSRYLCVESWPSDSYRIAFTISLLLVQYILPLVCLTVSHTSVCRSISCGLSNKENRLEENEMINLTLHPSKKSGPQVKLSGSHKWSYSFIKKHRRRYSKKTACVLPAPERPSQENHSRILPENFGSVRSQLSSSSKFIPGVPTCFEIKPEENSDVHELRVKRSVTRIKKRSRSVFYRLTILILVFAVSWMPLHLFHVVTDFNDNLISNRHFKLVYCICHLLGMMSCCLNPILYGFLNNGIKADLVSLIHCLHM
Text: Experiment 1 Affinity for NPY Y5 Receptor
cDNA sequence encoding a human NPY Y5 receptor (WO096/16542) was cloned in the expression vector pME18S (Takebe et al. Mol. Cell. Biol. 8, 8957). The obtained expression vector was transfected into a host CHO cells by using a Lipofect AMINE reagent (Trademark, Gibco BRL Co., Ltd.) according to an instruction protocol to obtain the cells that stably express NPY Y5 receptor.
The membranes prepared from the above CHO cells expressing NPY Y5 receptor, the compound of the present invention and 30,000 cpm [^125I] peptide YY (60 pM of final concentration: Amersham) were incubated in the assay buffer (20 mM HEPES-Hanks buffer containing 0.1% bovine serum albumin, pH 7.4) at 25° C. for 2 hours, and then the mixture was filtered with a glassfilter GF/C treated with polyethyleneimine. After the glassfilter was washed with 50 mM Tris-HCl buffer (pH 7.4), the radioactivity on the filter was measured with a gamma counter. The non-specific binding was detected in the presence of 200 nM of peptide YY. The 50% inhibitory concentration of the test compound against the specific peptide YY binding (IC50 value) was calculated (Inui, A. et al. Endocrinology 131, 2090-2096 (1992)).

human NPY Y5 receptor [2] = molecular target: T1, human NPY Y5 receptor; assay: cAMP production inhibitory activity in CHO cells; format: cell-based; settings: against 50 nM NPY inhibition of forskolin stimulated cAMP, CHO cells expressing human NPY Y5 receptor
Method: Experiment 2 cAMP production inhibitory activity in CHO cells
After CHO cells expressing human NPY Y5 receptor were incubated in the presence of 2.5 mM isobutylmethylxanthine (SIGMA) at 37° C. for 20 min., the compound of the present invention was added and incubated for 5 min. Then, 50 nM NPY and 10 μM forskolin (SIGMA) were added to the cells and incubated for 30 min. After the reaction was terminated by adding 1N HCl, the amount of cAMP in the supernatant was measured with EIA kit (Amersham LIFE SCIENCE).

SMILES	IC50 (human NPY Y5 receptor [1])	IC50 (human NPY Y5 receptor [2])
CCCCc1ccc(C(=O)Nc2ccc(NS(=O)(=O)C(C)C)cc2)cc1 [Compound I-2]	7.5 nM	72 nM
CCCCc1ccc(NC(=O)CCCCNS(=O)(=O)C(C)C)cc1 [Compound I-7]	3 nM	< 10 nM
CCCCc1ccc(NC(=O)CCCCNS(=O)(=O)C(C)(C)C)cc1 [Compound I-11]	1.3 nM	5 nM
CCCCc1ccc(NC(=O)C2CCC(NS(=O)(=O)C(C)(C)C)CC2)cc1 (stereo not shown) [Compound I-18]	4.4 nM	29 nM
CCCCc1ccc(C(=O)NCCCCNS(=O)(=O)C(C)(C)C)cc1 [Compound I-20]	7 nM	21 nM
CCCCc1ccc(NC(=O)C2CCC(NS(=O)(=O)C(C)(C)C)CC2)cc1 (stereo not shown) [Compound I-22]	8.6 nM	51 nM
CCCCc1ccc(NC(=O)C2CCC(CNS(=O)(=O)C(C)(C)C)CC2)cc1 (stereo not shown) [Compound I-24]	9.6 nM	71 nM
CC(C)(C)S(=O)(=O)NC1CCC(C(=O)Nc2ccc(-c3ccc(-c4ccccc4)cc3)cc2)CC1 (stereo not shown) [Compound I-136]	2.8 nM	
COc1ccc(Cl)cc1NC(=O)C1CCC(NS(=O)(=O)C(C)(C)C)CC1 (stereo not shown) [Ia-35]	1.8 nM	
CC(C)S(=O)(=O)N[C@H]1CC[C@H](C(=O)Nc2ccc3oc(=O)ccc3c2)CC1 [Ia-76]	2.2 nM	
Cc1cc(=O)oc2cc(NC(=O)CCCCNS(=O)(=O)C(C)C)ccc12 [Ia-229]	1.9 nM	
CC(C)(C)S(=O)(=O)NC1CCC(C(=O)Nc2nc3ccccc3s2)CC1 (stereo not shown) [Ia-235]	5.5 nM	
CC(C)(C)S(=O)(=O)NC1CCN(C(=O)Nc2ccc(C(F)(F)F)cn2)CC1 [Ia-241]	1.9 nM	
Cc1cc(C(=O)NC(C)C)ccc1NC(=O)N1CCC(NS(=O)(=O)C(C)(C)C)CC1 [Ia-243]	1.3 nM	
CC(C)(C)S(=O)(=O)NC1CCC(C(=O)Nc2ccc3occc3c2)CC1 (stereo not shown) [Ia-250]	1.9 nM	
CC(C)S(=O)(=O)NC1CCC(C(=O)Nc2ccc(OC(C)(C)C)cc2)CC1 (stereo not shown) [Ia-252]	1.2 nM	
CC(C)(C)Oc1ccc(NC(=O)N2CCC(NS(=O)(=O)C(C)(C)C)CC2)cc1 [Ia-254]	2 nM	
CC(C)(C)S(=O)(=O)NCCCCC(=O)Nc1ccc(N2CCCS2(=O)=O)cc1 [Ia-255]	3.2 nM	
CC(C)(C)S(=O)(=O)NC1CCN(C(=O)Nc2ccc(N3CCCS3(=O)=O)cc2)CC1 [Ia-256]	5.7 nM	
CC(C)(C)S(=O)(=O)NCCCCC(=O)Nc1ccc(OC2CCOCC2)cc1 [Ia-257]	8.6 nM	
CC(C)S(=O)(=O)NC1CCC(C(=O)Nc2ccc(OC3CCOCC3)cc2)CC1 (stereo not shown) [Ia-258]	1.8 nM	

The next compounds have a lower IC50 (human NPY Y5 receptor [1]) than those just listed; values first:

IC50 (human NPY Y5 receptor [1])	IC50 (human NPY Y5 receptor [2])	SMILES
0.6 nM	2.6 nM	CCCCc1ccc(NC(=O)C2CCC(NS(=O)(=O)C(C)(C)C)CC2)cc1 (stereo not shown) [Compound I-25]
0.82 nM		CC(C)(C)S(=O)(=O)N[C@H]1CC[C@H](C(=O)Nc2ccc3c(c2)C(=O)N(c2ccccc2)C3=O)CC1 [Ia-79]
0.38 nM		CC(C)S(=O)(=O)NC1CCC(C(=O)Nc2ccc(-c3ncco3)cc2)CC1 (stereo not shown) [Ia-184]
0.55 nM		CC(C)(C)S(=O)(=O)NC1CCC(C(=O)Nc2cccc(-c3ccco3)c2)CC1 (stereo not shown) [Ia-209]
0.59 nM		Cc1cc(=O)oc2cc(NC(=O)[C@H]3CC[C@H](NS(=O)(=O)C(C)C)CC3)ccc12 [Ia-227]
0.96 nM		Cc1cc(=O)oc2cc(NC(=O)CCCCNS(=O)(=O)C(C)(C)C)ccc12 [Ia-228]
0.32 nM		CC(C)CN1C(=O)c2ccc(NC(=O)[C@H]3CC[C@H](NS(=O)(=O)C(C)(C)C)CC3)cc2C1=O [Ia-230]
0.29 nM		CC(C)CN1C(=O)c2ccc(NC(=O)[C@H]3CC[C@H](NS(=O)(=O)C(C)C)CC3)cc2C1=O [Ia-231]
0.7 nM		CC(C)CN1C(=O)c2ccc(NC(=O)CCCCNS(=O)(=O)C(C)(C)C)cc2C1=O [Ia-232]
0.63 nM		CC(C)CN1C(=O)c2ccc(NC(=O)CCCCNS(=O)(=O)C(C)C)cc2C1=O [Ia-233]
0.53 nM		CC(C)(C)Oc1ccc(NC(=O)CCCCNS(=O)(=O)C(C)(C)C)cc1 [Ia-253]

Source: patent publication US7265130B2, “NPY Y5 antagonist” (Shionogi & Co., Ltd., priority 1999, dated 2007)
